First: CCOC(=O)C(=O)CC(=O)c1ccc2c(c1)c(=O)c(CCC(=O)O)cn2Cc1ccc(F)cc1
Second: O=C(O)CCc1cn(Cc2ccc(F)cc2)c2ccc(C(=O)CC(=O)C(=O)O)cc2c1=O
The melting point of the first is lower: 177 to 180 °C for the first, 184 to 187 °C for the second.

First: CCOC(=O)C(=O)CC(=O)c1cn(Cc2ccc(F)cc2)c2c(F)cccc2c1=O
Second: CCOC(=O)C(=O)CC(=O)c1cn(Cc2ccc(F)cc2)c2c(Cl)cccc2c1=O
The melting point of the first is higher: 179 to 180 °C for the first, 164 to 165 °C for the second.

Compared with O=C(O)C(=O)CC(=O)c1cn(Cc2ccc(F)cc2)c2c(F)cccc2c1=O, O=C(O)C(=O)CC(=O)c1cn(Cc2ccc(F)cc2)c2c(Cl)cccc2c1=O is lower in melting point: 180 to 181 °C for the first, 175 to 177 °C for the second.

First: CCOC(=O)C(=O)CC(=O)c1cn(Cc2cccc(OC)c2)c2ccccc2c1=O
Second: COc1cccc(Cn2cc(C(=O)CC(=O)C(=O)O)c(=O)c3ccccc32)c1
The melting point of the first is lower: 177 to 179 °C for the first, 179 to 181 °C for the second.

First: CCOC(=O)C(=O)CC(=O)c1cn(Cc2ccccc2OC)c2ccccc2c1=O
Second: COc1ccccc1Cn1cc(C(=O)CC(=O)C(=O)O)c(=O)c2ccccc21
The melting point of the first is lower: 154 to 156 °C for the first, 173 to 175 °C for the second.

First: CCOC(=O)C(=O)CC(=O)c1cn(Cc2ccc(O)cc2)c2ccccc2c1=O
Second: O=C(O)C(=O)CC(=O)c1cn(Cc2ccc(O)cc2)c2ccccc2c1=O
The melting point of the first is lower: 179 to 181 °C for the first, 206 to 208 °C for the second.

First: CCOC(=O)C(=O)CC(=O)c1cn(Cc2ccc(F)cc2)c2cc(Cl)c(Cl)cc2c1=O
Second: O=C(O)C(=O)CC(=O)c1cn(Cc2ccc(F)cc2)c2cc(Cl)c(Cl)cc2c1=O
The melting point of the first is lower: 144 to 145 °C for the first, 175 to 177 °C for the second.

First: O=C(O)C(=O)CC(=O)c1cn(Cc2ccc(F)cc2)c2cc(N3CCCC3)ccc2c1=O
Second: O=C(O)C(=O)CC(=O)c1cn(Cc2ccccc2F)c2cc(Cl)ccc2c1=O
The melting point of the first is higher: 197 to 199 °C for the first, 187 to 189 °C for the second.

First: CCOC(=O)C(=O)CC(=O)c1cn(Cc2ccccc2F)c2cc(Cl)ccc2c1=O
Second: CCOC(=O)C(=O)CC(=O)c1cn(Cc2c(F)cccc2F)c2ccccc2c1=O [RDS1983, 4-[1-(2,6-Difluorophenyl)methyl-1,4-dihydro-4-oxoquinolin-3-yl]-2,4-dioxobutanoic acid ethyl ester]
The melting point of the first is higher: 173 to 175 °C for the first, 172 to 173 °C for the second.

First: CCOC(=O)C(=O)CC(=O)c1c[nH]c2ccccc2c1=O [RDS1675, 4-(1,4-dihydro-4-oxoquinolin-3-yl)-2,4-dioxobutanoic acid ethyl ester]
Second: CCOC(=O)C(=O)CC(=O)c1cn(CCCCc2ccccc2)c2ccccc2c1=O [RDS1980, 4-[1-(4-Phenylbutyl)-1,4-dihydro-4-oxoquinolin-3-yl]-2,4-dioxobutanoic acid ethyl ester]
The melting point of the first is higher: 235 to 237 °C for the first, 88 to 90 °C for the second.

First: CCOC(=O)C(=O)CC(=O)c1cn(Cc2ccc3ccccc3c2)c2ccccc2c1=O [RDS1974, 4-[α-(2-Naphthyl)methyl-1,4-dihydro-4-oxoquinolin-3-yl]-2,4-dioxobutanoic acid ethyl ester]
Second: O=C(O)C(=O)CC(=O)c1cn(Cc2ccc3ccccc3c2)c2ccccc2c1=O [RDS1975, 4-[1-(2-Naphthyl)methyl-1,4-dihydro-4-oxoquinolin-3-yl]-2,4-dioxobutanoic acid]
The melting point of the first is lower: 153 to 154 °C for the first, 212 to 213 °C for the second.

Compared with O=C(O)C(=O)CC(=O)c1cn(CCCCc2ccccc2)c2ccccc2c1=O [RDS1981, 4-[1-(4-Phenylbutyl)-1,4-dihydro-4-oxoquinolin-3-yl]-2,4-dioxobutanoic acid], O=C(O)C(=O)CC(=O)c1cn(Cc2c(F)cccc2F)c2ccccc2c1=O [RDS1984, 4-[1-(2,6-Difluorophenyl)methyl-1,4-dihydro-4-oxoquinolin-3-yl]-2,4-dioxobutanoic acid] is higher in melting point: 136 to 138 °C for the first, 171 to 172 °C for the second.

For O=C(O)C(=O)CC(=O)c1c[nH]c2ccccc2c1=O [RDS1680, 4-(1,4-dihydro-4-oxoquinolin-3-yl)-2,4-dioxobutanoic acid], the melting point was greater than 290 °C.
